From US10040791B2, “Isoxazole derivative as mutant isocitrate dehydrogenase 1 inhibitor” (Daiichi Sankyo Company, Limited, priority 2014, dated 2018) come the findings set out here.

In assay [1] the test system is HT1080 xenografted mice (IDH1R132C). Briefly: 2-HG production inhibitory activity using HT1080 xenografted mice. In kind it is in vivo, mouse. The conditions noted are these: for response vs control in vivo at 75 mg/kg: Mus musculus, HT-1080, po, 6 h, read-out: Test Example 5 Ratio (%). How it is done:
HT1080 xenografted mice having successfully engrafted tumors were given by oral gavage each compound at 75 mg/kg a total of three times twice a day. The compound was suspended in a vehicle solution at 7.5 mg/mL using a homogenizer. Then, the suspension was stored at −20° C., thawed immediately before the administration, and given to mice. A negative control group for the test was given a vehicle by oral gavage. The body weights of the mice were measured using an automatic balance for small animals. The dosing solution was administered at a dose of 10 mL/kg body weight.
6 hours after the final administration, each mouse was euthanized with carbon dioxide. A portion of a tumor was collected, and its weight was measured using an electronic balance. Then, the tumor was frozen on dry ice. To the frozen tumor, methanol was added in an amount of 14 times the tumor weight. The resulting tumor was homogenized with Beads shocker (Yasui Kikai Corp.) and then incubated for 15 minutes in a freezer at −20° C. After centrifugation at 15000 rpm at 4° C. for 15 minutes using a high-speed refrigerated microcentrifuge, 250 μL of methanol and 400 μL of ultrapure water were added to 150 μL of the obtained supernatant. The prepared samples were subjected to 2-HG measurement.

The target in assay [2] is IDH1R132C (Homo sapiens (Human), UniProt O75874, R132C). Briefly: Inhibitory activity against IDH1R132C enzyme (NADPH detection, WST-8). The assay is classed as biochemical. To be noted: 10 nM, residual NADPH detected with WST-8, read-out: Test Example 1 IDH1 R132C IC50.
For assay [3], the system named is HT-1080 cells expressing IDH1R132C. The assay can be described thus: 2-HG production inhibitory activity using HT1080 cell. In kind it is cell-based, human. The method, then: Then, 100 μL of growth medium B was added to each well, further 25 μL of a solution of each compound diluted to a predetermined concentration with growth medium B was added to each well, and the cells were incubated at 37° C. for 2 days under 5% CO2. […] Then, 150 μL of ultrapure water was further added to each well, and the mixture was stirred by pipetting and stored at −20° C.
The preserved solutions were thawed at room temperature.

Where [4] appears, read: 2-HG production, HT1080 xenografted mice.
[5] abbreviates: Homo sapiens, HT-1080, 2-HG production, HT1080 cells, read-out: Test Example 3 IC50.

The structures appear in SMILES notation. Where two headings read alike, the source gives them in different places.

Sequence of IDH1R132C (O75874 whole entry R132C): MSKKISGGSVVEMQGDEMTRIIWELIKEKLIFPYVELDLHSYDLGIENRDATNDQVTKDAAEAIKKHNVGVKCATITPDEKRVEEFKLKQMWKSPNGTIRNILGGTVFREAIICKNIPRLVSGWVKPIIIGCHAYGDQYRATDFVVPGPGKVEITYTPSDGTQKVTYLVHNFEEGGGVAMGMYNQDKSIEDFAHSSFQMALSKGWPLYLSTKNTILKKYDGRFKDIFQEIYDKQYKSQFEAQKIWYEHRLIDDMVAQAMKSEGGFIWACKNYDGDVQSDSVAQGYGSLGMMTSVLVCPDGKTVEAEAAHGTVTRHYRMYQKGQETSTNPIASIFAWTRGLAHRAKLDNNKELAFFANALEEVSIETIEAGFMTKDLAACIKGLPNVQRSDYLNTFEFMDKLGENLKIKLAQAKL

As to `Cc1cn(C(=O)c2c(-c3c(Cl)cc(Cl)cc3Cl)noc2C2(C)CC2)c2cccc(/C=C/C(=O)O)c12` [Example 43, (2E)-3-(3-Methyl-1-{[5-(1-methylcyclopropyl)-3-(2,4,6-trichlorophenyl)-1,2-oxazol-4-yl]carbonyl}-1H-indol-4-yl)prop-2-enoic acid], the response vs control in vivo at 75 mg/kg in assay [1] (setting [4]) is 54%. The IC50 is 139 nM in assay [2] and 63 nM in assay [3] (setting [5]).
In the case of `COC1(c2onc(-c3c(Cl)cc(Cl)cc3Cl)c2C(=O)n2ccc3c(/C=C/C(=O)O)cccc32)CC1` [Example 44, (2E)-3-(1-{[5-(1-Methoxycyclopropyl)-3-(2,4,6-trichlorophenyl)-1,2-oxazol-4-yl]carbonyl}-1H-indol-4-yl)prop-2-enoic acid], in assay [1] (setting [4]), the response vs control in vivo at 75 mg/kg is 72%. Moreover, the half-maximal inhibitory concentration (IC50) in assay [2] came to 189 nM; in assay [3] (setting [5]), 194 nM.
In the case of `CC(C)(F)c1onc(-c2c(F)cc(Cl)cc2Cl)c1C(=O)n1ccc2c(/C=C/C(=O)O)cccc21` [Example 46, (2E)-3-(1-{[3-(2,4-Dichloro-6-fluorophenyl)-5-(2-fluoropropan-2-yl)-1,2-oxazol-4-yl]carbonyl}-1H-indol-4-yl)prop-2-enoic acid], the response vs control in vivo at 75 mg/kg in assay [1] (setting [4]) was found to be 69%. For the same compound, the IC50 in assay [2] was 197 nM; in assay [3] (setting [5]), 459 nM.
Take `Cc1cn(C(=O)c2c(-c3c(F)cc(Cl)cc3Cl)noc2C(C)(C)F)c2cccc(/C=C/C(=O)O)c12` [Example 47, (2E)-3-(1-{[3-(2,4-Dichloro-6-fluorophenyl)-5-(2-fluoropropan-2-yl)-1,2-oxazol-4-yl]carbonyl}-3-methyl-1H-indol-4-yl)prop-2-enoic acid]: the response vs control in vivo at 75 mg/kg in assay [1] (setting [4]) was found to be 17%. In addition, the IC50 in assay [2] is 98 nM; in assay [3] (setting [5]), 62 nM.
Regarding `CC(C)(C)c1onc(-c2c(Cl)cc(Cl)cc2Cl)c1C(=O)n1ccc2c(/C=C/C(=O)O)ccc(F)c21` [Example 48], the “Test Example 5 Ratio (%)” value in assay [1] (setting [4]) came out at 72%. Moreover, the IC50 in assay [2] worked out at 193 nM; in assay [3] (2-HG production, HT1080 cells, read-out: Test Example 3 IC50) it was 115 nM.
Turning to `Cc1cn(C(=O)c2c(-c3c(Cl)cc(F)cc3Cl)noc2C(C)(C)F)c2cccc(/C=C/C(=O)O)c12` [Example 49, (2E)-3-(1-{[3-(2,6-Dichloro-4-fluorophenyl)-5-(2-fluoropropan-2-yl)-1,2-oxazol-4-yl]carbonyl}-3-methyl-1H-indol-4-yl)prop-2-enoic acid], in assay [1] (setting [4]), the response vs control in vivo at 75 mg/kg worked out at 44%. Also, the IC50 is 79 nM in assay [2] and 119 nM in assay [3] (setting [5]).
With `Cc1cn(C(=O)c2c(-c3c(Cl)cc(Cl)cc3Cl)noc2C(C)(C)F)c2c(F)ccc(/C=C/C(=O)O)c12` [Example 50, (2E)-3-(7-Fluoro-1-{[5-(2-fluoropropan-2-yl)-3-(2,4,6-trichlorophenyl)-1,2-oxazol-4-yl]carbonyl}-3-methyl-1H-indol-4-yl)prop-2-enoic acid], the response vs control in vivo at 75 mg/kg in assay [1] (setting [4]) was 84%. The IC50 came out at 104 nM in assay [2] and 173 nM in assay [3] (setting [5]).
For the compound `Cc1cn(C(=O)c2c(-c3c(Cl)cc(Cl)cc3Cl)noc2C(C)(F)F)c2cccc(/C=C/C(=O)O)c12` [Example 51, (2E)-3-(1-{[5-(1,1-Difluoroethyl)-3-(2,4,6-trichlorophenyl)-1,2-oxazol-4-yl]carbonyl}-3-methyl-1H-indol-4-yl)prop-2-enoic acid], in assay [1], the response vs control in vivo at 75 mg/kg turned out to be 52%. The IC50 in assay [2] came to 115 nM; in assay [3] (Homo sapiens, HT-1080, read-out: Test Example 3 IC50 (nM)), 83 nM.
Turning to `Cc1cn(C(=O)c2c(-c3c(F)cccc3Cl)noc2C(C)(C)F)c2cccc(/C=C/C(=O)O)c12` [Example 52, (2E)-3-(1-{[3-(2-Chloro-6-fluorophenyl)-5-(2-fluoropropan-2-yl)-1,2-oxazol-4-yl]carbonyl}-3-methyl-1H-indol-4-yl)prop-2-enoic acid], the response vs control in vivo at 75 mg/kg in assay [1] (setting [4]) was 71%. Besides, the 50% inhibitory concentration (IC50) in assay [2] worked out at 136 nM; in assay [3] (setting [5]), 263 nM.
On to `Cc1cn(C(=O)c2c(-c3c(Cl)cccc3Cl)noc2C(C)(C)F)c2cccc(/C=C/C(=O)O)c12` [Example 53, (2E)-3-(1-{[3-(2,6-Dichlorophenyl)-5-(2-fluoropropan-2-yl)-1,2-oxazol-4-yl]carbonyl}-3-methyl-1H-indol-4-yl)prop-2-enoic acid], for which the response vs control in vivo at 75 mg/kg in assay [1] (setting [4]) is 60%. The half-inhibitory concentration (IC50) in assay [2] is 163 nM; in assay [3] (setting [5]), 146 nM.
For `Cc1cn(C(=O)c2c(-c3c(F)cc(Cl)cc3F)noc2C(C)(C)F)c2cccc(/C=C/C(=O)O)c12` [Example 54, (2E)-3-(1-{[3-(4-Chloro-2,6-difluorophenyl)-5-(2-fluoropropan-2-yl)-1,2-oxazol-4-yl]carbonyl}-3-methyl-1H-indol-4-yl)prop-2-enoic acid], the “Test Example 5 Ratio (%)” value in assay [1] (setting [4]) is 16%. For the same compound, the IC50 in assay [2] amounted to 109 nM; in assay [3] (setting [5]) it was 90 nM.
Regarding `Cc1cc(Cl)cc(C)c1-c1noc(C(C)(C)F)c1C(=O)n1cc(C)c2c(/C=C/C(=O)O)cccc21` [Example 55, (2E)-3-(1-{[3-(4-Chloro-2,6-dimethylphenyl)-5-(2-fluoropropan-2-yl)-1,2-oxazol-4-yl]carbonyl}-3-methyl-1H-indol-4-yl)prop-2-enoic acid], the response vs control in vivo at 75 mg/kg in assay [1] (setting [4]) was found to be 15%. Further, the IC50 in assay [2] is 125 nM; in assay [3] (setting [5]), 62 nM.
With `Cc1cc(Cl)c(-c2noc(C(C)(C)F)c2C(=O)n2cc(C)c3c(/C=C/C(=O)O)cccc32)c(Cl)c1` [Example 56, (2E)-3-(1-{[3-(2,6-Dichloro-4-methylphenyl)-5-(2-fluoropropan-2-yl)-1,2-oxazol-4-yl]carbonyl}-3-methyl-1H-indol-4-yl)prop-2-enoic acid], in assay [1] (setting [4]), the response vs control in vivo at 75 mg/kg was found to be 28%. For the same compound, the IC50 in assay [2] turned out to be 107 nM; in assay [3] (setting [5]), 52 nM.
As to `COC1(c2onc(-c3c(Cl)cc(Cl)cc3Cl)c2C(=O)n2cc(C)c3c(/C=C/C(=O)O)cccc32)CC1` [Example 57, (2E)-3-(1-{[5-(1-Methoxycyclopropyl)-3-(2,4,6-trichlorophenyl)-1,2-oxazol-4-yl]carbonyl}-3-methyl-1H-indol-4-yl)prop-2-enoic acid], in assay [1] (setting [4]), the response vs control in vivo at 75 mg/kg amounted to 12%. Further, the IC50 in assay [2] turned out to be 98 nM; in assay [3] (setting [5]), 26 nM.
Turning to `Cc1cc(Cl)cc(Cl)c1-c1noc(C(C)(C)F)c1C(=O)n1cc(C)c2c(/C=C/C(=O)O)cccc21` [Example 59, (2E)-3-(1-{[3-(2,4-Dichloro-6-methylphenyl)-5-(2-fluoropropan-2-yl)-1,2-oxazol-4-yl]carbonyl}-3-methyl-1H-indol-4-yl)prop-2-enoic acid], in assay [1] (setting [4]), the response vs control in vivo at 75 mg/kg was determined as 10%. Further, the IC50 in assay [2] is 117 nM; in assay [3] (setting [5]), 56 nM.
As to `Cc1cc(C)c(-c2noc(C(C)(C)F)c2C(=O)n2cc(C)c3c(/C=C/C(=O)O)cccc32)c(C)c1` [Example 60, (2E)-3-(1-{[5-(2-Fluoropropan-2-yl)-3-(2,4,6-trimethylphenyl)-1,2-oxazol-4-yl]carbonyl}-3-methyl-1H-indol-4-yl)prop-2-enoic acid], the response vs control in vivo at 75 mg/kg in assay [1] (setting [4]) is 9%. Besides, the values for the half-maximal inhibitory concentration (IC50) in assay [2] and in assay [3] (setting [5]) were 116 nM and 92 nM, respectively.
`Cc1cn(C(=O)c2c(-c3ccc(Cl)cc3Cl)noc2C(C)(C)F)c2cccc(/C=C/C(=O)O)c12` [Example 62, (2E)-3-(1-{[3-(2,4-Dichlorophenyl)-5-(2-fluoropropan-2-yl)-1,2-oxazol-4-yl]carbonyl}-3-methyl-1H-indol-4-yl)prop-2-enoic acid]: the “Test Example 5 Ratio (%)” value in assay [1] (setting [4]) worked out at 10%. Moreover, the IC50 came to 155 nM in assay [2] and 69 nM in assay [3] (setting [5]).
As to `Cc1cn(C(=O)c2c(-c3cc(F)c(Cl)cc3Cl)noc2C(C)(C)F)c2cccc(/C=C/C(=O)O)c12` [Example 63, (2E)-3-(1-{[3-(2,4-Dichloro-5-fluorophenyl)-5-(2-fluoropropan-2-yl)-1,2-oxazol-4-yl]carbonyl}-3-methyl-1H-indol-4-yl)prop-2-enoic acid], the response vs control in vivo at 75 mg/kg in assay [1] (setting [4]) came out at 31%. The IC50 worked out at 145 nM in assay [2] and 193 nM in assay [3] (setting [5]).
Consider `CCc1cn(C(=O)c2c(-c3c(Cl)cc(Cl)cc3Cl)noc2C(C)(C)F)c2cccc(/C=C/C(=O)O)c12` [Example 65, (2E)-3-(3-Ethyl-1-{[5-(2-fluoropropan-2-yl)-3-(2,4,6-trichlorophenyl)-1,2-oxazol-4-yl]carbonyl}-1H-indol-4-yl)prop-2-enoic acid], for which the response vs control in vivo at 75 mg/kg in assay [1] (setting [4]) worked out at 65%. For the same compound, the IC50 in assay [2] stood at 198 nM; in assay [3] (setting [5]), 93 nM.
